# Experimental data from patent publication US7569724B2, “Carbamic acid compounds comprising an amide linkage as HDAC inhibitors” (Topotarget UK Limited, priority 2000, dated 2009).
# Counter-ions that a name gives are not always drawn. Like-named read-outs stand apart in the source and are kept apart here.
# What was measured:
# [1] = system: HDAC (HeLa cell extract); experiment: Primary assay: deacetylase activity, HeLa cell extract as source of HDAC; type: biochemical, human; conditions: HeLa cell extract
# Source text: Briefly, this assay relies on the release of radioactive acetate from a radioactively labelled histone fragment by the action of HDAC enzyme. Test compounds, which inhibit HDAC, reduce the yield of radioactive acetate. Signal (e.g., scintillation counts) measured in the presence and absence of a test compound provide an indication of that compound's ability to inhibit HDAC activity. Decreased activity indicates increased inhibition by the test compound.
# The histone fragment was an N-terminal sequence from histone H4, and it was labelled with radioactively labelled acetyl groups using tritiated acetylcoenzyme A (coA) in conjunction with an enzyme which is the histone acetyltransferase domain of the transcriptional coactivator p300. […] The acetylated peptide was then separated from free acetyl coA by size exclusion chromatography on Sephadex G-15 (Sigma G-15-120), using distilled H2O as the mobile phase.
# After purification of the radiolabelled histone fragment, it was incubated with a source of HDAC (e.g., an extract of HeLa cells (a rich source of HDAC), recombinantly produced HDAC1 or HDAC2) and any released acetate was extracted into an organic phase and quantitatively determined using scintillation counting. By including a test compound with the source of HDAC, that compound's ability to inhibit the HDAC was determined.
# The HeLa cell extract was made from HeLa cells (ATCC Ref. No. CCL-2) by freeze-thawing three times in 60 mM TrisCl pH 8.0, 450 mM NaCl, 30% glycerol. Two cell volumes of extraction buffer were used, and particulate material was centrifuged out (20800 g, 4° C., 10 min). The supernatant extract having deacetylase activity was aliquotted and frozen for storage.
# A source of HDAC (e.g., 2 μL of crude HeLa extract, 5 μL of HDAC1 or HDAC2; in elution buffer, as above) was incubated with 3 μL of radioactively labelled peptide along with appropriate dilutions of candidate compounds (1.5 μL) in a total volume of 150 μL of buffer (20 mM Tris pH 7.4, 10% glycerol). The reaction was carried out at 37° C. for one hour, after which the reaction was stopped by adding 20 μL of 1 M HCl/0.4 M sodium acetate. […] Radioactivity was measured using a Tri-Carb 2100TR Liquid Scintillation Analyzer (Packard).
# Percent activity (% activity) for each test compound was calculated as: % activity={(S^C−B)/(S^o−B)}×100 wherein S^C denotes signal measured in the presence of enzyme and the compound being tested, S^o denotes signal measured in the presence of enzyme but in the absence of the compound being tested, and B denotes the background signal measured in the absence of both enzyme and compound being tested.
# [2] = system: HeLa cells; experiment: Secondary assay: cell proliferation WST-1, HeLa; type: cell-based; conditions: Homo sapiens, 48 h, read-out: Cell Proliferation Inhibition WST-1 (IC50 unless otherwise specified) HeLa
# Description: Compounds with HDAC inhibition activity, as determined using the primary assay, were subsequently evaluated using secondary cell-based assays. The following cell lines were used:
# HeLa—Human cervical adenocarcinoma cell line (ATCC ref. No. CCL-2).
# Cells were plated in 96-well plates at 3-10×10^3 cells/well in 100 μL of culture medium. The following day, different concentrations of candidate compounds were added and the cells incubated at 37° C. for 48 h. Subsequently, 10 μL/well of WST-1 reagent was added and the cells reincubated for 1 hour. After the incubation time, absorbance was measured.
# WST-1 is a tetrazolium salt which is cleaved to formazan dye by cellular enzymes. An expansion in the number of viable cells results in an increase in the overall activity of mitochondrial dehydrogenases in the sample. This augmentation in the enzyme activity leads to an increase in the amount of formazan dye formed, which directly correlates to the number of metabolically active cells in the culture. The formazan dye produced is quantified by a scanning multiwell spectrophotometer by measuring the absorbance of the dye solution at 450 nm wavelength (reference wavelength 690 nm).
# Percent activity (% activity) in reducing the number of viable cells was calculated for each test compound as: % activity={(S^C−B)/(S^o−B)}×100 wherein S^C denotes signal measured in the presence of the compound being tested, S^o denotes signal measured in the absence of the compound being tested, and B denotes the background signal measured in blank wells containing medium only.
# IC50 values were calculated using the software package Prism 3.0 (GraphPad software Inc., San Diego, Calif.), setting top value at 100 and bottom value at 0.
# [3] = read-out: HDAC Inhibition (IC50 unless otherwise specified) HeLa
# [4] = comparative tables, no unit in cell, read-out: HeLa IC50
Compound,"HDAC Inhibition HeLa, percent ([1]; @ 500 nM) [% @ 500 nM]","HDAC Inhibition HeLa, percent ([1]; @ 1 μM) [% @ 1 μM]",also measured
"O=C(/C=C/c1cccnc1)NCCCCCC(=O)NO [PX116231, E-N-(5-Hydroxycarbamoyl-pentyl)-3-pyridin-3-yl-acrylamide oxalate]",51,,
"O=C(/C=C/C=C/c1ccccc1Cl)NCCCCCC(=O)NO [PX117255, (2E)(4E)-5-(2-Chlorophenyl)penta-2,4-dienoic acid (5-hydroxycarbamoylpentyl)amide]",,,"IC50 [1, 3]: 0.05 µM; IC50 [2]: 18 µM"
"O=C(/C=C/c1ccc(-c2cc(C(F)(F)F)cc(C(F)(F)F)c2)o1)NCCCCCC(=O)NO [PX117224, (E)-3-{5-[3,5-bis(trifluoromethyl)phenyl]-2-furyl}-N-[6-(hydroxyamino)-6-oxohexyl]2-propenamide]",81,,IC50 [2]: 26 µM
"CN(C)c1ccc(/C=C/C(=O)NCCCC(=O)NO)cc1 [PX083447, 4-(3-(4-Dimethylamino-phenyl)-acryoylamino)-N-hydroxy-butyramide]",,15,
"COc1ccc(C(=O)NCCCCC(=O)NO)cc1 [PX089048, N-(4-Hydroxycarbamoyl-butyl)-4-methoxy-benzamide]",,34,
CN(C)c1ccc(C=CC(=O)NCCCCCC(=O)NO)cc1 [PX105533],,,"IC50 [1, 4]: 0.018 µM"
O=C(CC(=O)NCCc1ccccc1)NO [PX099268],,,"HDAC Inhibition HeLa, percent ([1]; @ 10 μM): 18% @ 10 μM"
"O=C(CCCCCNC(=O)c1ccoc1)NO [PX116219, Furan-3-carboxylic acid (5-hydroxycarbamoyl-pentyl)-amide]",26,,
"O=C(/C=C/c1ccncc1)NCCCCCC(=O)NO [PX106521, (E)-N-(5-Hydroxycarbamoylpentyl)-3-pyridin-4-yl-acrylamide oxalate]",,,"IC50 [1, 3]: 0.138 µM; IC50 [2]: 46 µM"
"CC(C)c1ccc(NC(=O)CCCC(=O)NO)cc1 [PX082548, Pentanedioic acid hydroxyamide (4-isopropyl-phenyl)-amide]",,41,
"O=C(/C=C/c1ccc(NC(=O)c2ccc3ccccc3c2)cc1)NO [PX116246, Naphthalene-2-carboxylic acid [4-(2-hydroxycarbamoyl-vinyl)-phenyl]-amide]",52,,
"O=C(/C=C/C=C/c1ccc(Br)cc1)NCCCC(=O)NO [PX105816, (2E)(4E)-5-(4-Bromophenyl)penta-2,4-dienoic acid (3-hydroxycarbamoylpropyl)amide]",20,,
COc1ccc(/C=C/C=C/C(=O)NCCCC(=O)NO)cc1 [PX105670],,29,
"COc1ccc(NC(=O)CCCC(=O)NO)cc1 [PX082546, Pentanedioic acid hydroxyamide (4-methoxy-phenyl)-amide]",,36,
"CC(/C=C/c1ccccc1)=C\C(=O)NCCCCCC(=O)NO [PX106526, (2E,4E)-3-Methyl-5-phenylpenta-2,4-dienoic acid (5-hydroxycarbamoylpentyl)-amide]",,,IC50 [2]: 2.1 µM
"O=C(/C=C/c1ccc(NC(=O)c2ccccc2)cc1)NO [PX117231, N-[4-(2-Hydroxycarbamoyl-vinyl)-phenyl]-benzamide]",72,,"percent HDAC inhibition at the stated concentration ([1]; comparative tables, @ 1 μM): 72% @ 1 μM"
O=C(/C=C/C=C/c1ccccc1)NCCC(=O)NO [PX083448],,,"IC50 [1, 3]: > 1 µM; IC50 [1, 4]: > 1 µM"
"O=C(/C=C/c1ccc([N+](=O)[O-])cc1)NCCC(=O)NO [PX083807, N-(2-Hydroxycarbamoyl-ethyl)-3-(4-nitro-phenyl)-acryamide]",,9,
"O=C(/C=C/c1ccc([N+](=O)[O-])cc1)NCCCC(=O)NO [PX083803, N-Hydroxy-4-(3-4-(nitro-phenyl)-acryoylamino)-butyramide]",,15,

Compound,"HDAC Inhibition HeLa, percent ([1]; @ 500 nM) [% @ 500 nM]","HDAC Inhibition HeLa, percent ([1]; @ 1 μM) [% @ 1 μM]",also measured
"O=C(/C=C/C=C/c1ccccc1)NCCCCC(=O)NO [PX105832, (2E)(4E)-5-Phenylpenta-2,4-dienoic acid (4-hydroxycarbamoyl-butyl)amide]",,,"IC50 [1, 3]: 0.438 µM; IC50 [1, 4]: 0.438 µM"
CN(CCCC(=O)NO)C(=O)/C=C/C=C/c1ccccc1 [PX105668],,,"IC50 [1, 3]: > 10 µM"
CN(C)c1ccc(C(=O)NCCCC(=O)NO)c2ccccc12 [PX082533],,2,"percent HDAC inhibition at the stated concentration ([1]; comparative tables, @ 1 μM): 2% @ 1 μM"
"O=C(/C=C\C=C\c1ccc(Br)cc1)NCCCC(=O)NO [PX105846, (2Z)(4E)-5-(4-Bromophenyl)penta-2,4-dienoic acid (3-hydroxycarbamoyl-propyl)amide]",46,,
"COc1ccc(NC(=O)CCCC(=O)NO)cc1OC [PX082549, Pentanedioic acid (3,4-dimethoxy-phenyl)-amide hydroxyamide]",,43,
"O=C(CCCCCCC(=O)Nc1ccccc1)NO [SAHA, Suberoylanilide Hydroxamic Acid, reference compound]",,,IC50 [2]: 2.2 µM
"O=C(CCCCNC(=O)c1ccccc1)NO [PX089049, N-(4-Hydroxycarbamoyl-butyl)-benzamide]",,,"IC50 [1, 3]: > 1 µM"
"O=C(/C=C/c1ccc(C(F)(F)F)cc1)NCCCC(=O)NO [PX083804, N-Hydroxy-4-(3-4-(trifluoromethyl-phenyl)-acryoylamino)-butyramide]",,14,
"CN(C)c1ccc(CC(=O)NCCCC(=O)NO)cc1 [PX082532, 4-(2-(4-Dimethylamino-phenyl)-acetylamino)-N-hydroxy-butyramide]",,21,
"O=C(/C=C/c1ccccn1)NCCCCCC(=O)NO [PX106528, (E)-N-(5-Hydroxycarbamoylpentyl)-3-pyridin-2-yl-acrylamide oxalate]",67,,
"O=C(CCCCCNC(=O)CCCc1ccccc1)NO [PX116210, N-Hydroxy-6-[(4-phenylbutanoyl)amino]hexanamide]",19,,
"O=C(/C=C/C=C/c1ccc(Cl)cc1)NCCCC(=O)NO [PX105845, (2E)(4E)-5-(4-Chlorophenyl)-penta-2,4-dienoic acid (3-hydroxycarbamoylpropyl)-amide]",22,,
"O=C(CCc1ccc(NC(=O)c2ccccc2)cc1)NO [PX117232, N-[4-(2-Hydroxycarbamoyl-ethyl)-phenyl]-benzamide]",43,,"percent HDAC inhibition at the stated concentration ([1]; comparative tables, @ 1 μM): 43% @ 1 μM"
"Nc1nonc1C(=O)NCCCCCC(=O)NO [PX106519, 4-Aminofurazan-3-carboxylic acid (5-hydroxycarbamoylpentyl)amide]",46,,
O=C(/C=C/c1ccccc1)NCCC(=O)NO [PX083806],,19,
O=C(/C=C/C=C/c1ccco1)NCCCCCC(=O)NO [PX116230],,,HDAC Inhibition (IC50 unless otherwise specified) HeLa [1]: insoluble
"O=C(/C=C/c1ccc(C(F)(F)F)cc1)NCCC(=O)NO [PX089283, N-(2-Hydroxycarbamoyl-ethyl)-3-(4-trifluoromethyl-phenyl)-acryamide]",,21,
O=C(/C=C/C=C/c1ccccc1)NCCCC(=O)NO [PX083808],,,"IC50 [1, 3]: 20 µM; IC50 [1, 4]: > 20 µM"
